The subject of one assay is Barley. Put plainly: Whole plant screen for plant growth regulator activity, barley (BR). It is filed as in vivo, Barley (Atem). To be noted: BR, 4000 ppm (4 kg/ha), visual score after 2-6 weeks; for T = Tillering or side shooting: * = decrease in tillering. How it is done:
(§1) Compounds 1 to 3 in Table 1 were tested for plant growth regulator activity against five species for various growth effects relevant to plant growth regulation.
(§2) The plant species used in this screen are presented in Table II with the leaf stage at which they were sprayed. Each chemical was applied at 4000 ppm (4 kg/ha in a 1000 l/ha field volume) using a tracksprayer and a SS8004E (Teejet) nozzle.
(§3) After spray the plants were grown in a glasshouse with 25° C. day/22° C. night temperatures and supplementary lighting was supplied when necessary (from mercury vapour lamps), to provide a 16 hour photoperiod. The exception to this were the temperate cereals, wheat and barley which were grown in 16° C. day/13° C. night temperatures.
(§4) After 2-6 weeks in the glasshouse, depending on the time of year, the plants were visually assessed for morphological characteristics. Formulation blanks were used as controls to assess the plants.
(§5) Additional compounds in Table I were tested for plant growth regulator activity using the method of Example 60 except that Tomato was included in the test as an additional species. Tomato, Ailsa Craig, was grown in a single 3 inch pot in peat and treated at the 2 to 21/2 leaves growth stage. The results were presented in Table IV in which Tomato is indicated by the code TO and the Key is otherwise as for Table III.

Another assay relates to Wheat. Put plainly: Whole plant screen for plant growth regulator activity, wheat (WW). In kind it is in vivo, Wheat (Timmo). The settings on record: WW, 4000 ppm (4 kg/ha), visual score after 2-6 weeks; for T = Tillering or side shooting: * = decrease in tillering. How it is done: as §1, §2, §3, §4, §5
The next assay has as its system Rice. As to the kind of experiment: Whole plant screen for plant growth regulator activity, rice (RC). In kind it is in vivo, Rice (Ishikari). The settings on record: 4000 ppm (4 kg/ha), visual score after 2-6 weeks; for T = Tillering or side shooting: * = decrease in tillering. The protocol: as §1, §2, §3, §4, §5
In another assay the test system is Apple. As to the kind of experiment: Whole plant screen for plant growth regulator activity, apple (AP). In kind it is in vivo, Apple (Red Delicious). To be noted: 4000 ppm (4 kg/ha), visual score after 2-6 weeks. How it is done: as §1, §2, §3, §4, §5
A further assay has as its system Tomato. As to the kind of experiment: Whole plant screen for plant growth regulator activity, tomato (TO). It is filed as in vivo, Tomato (Ailsa Craig). To be noted: 4000 ppm (4 kg/ha), visual score after 2-6 weeks. How it is done: as §2, §3, §4, §5
An astrisk (*) after a score under "T" (tillering) indicated a decrease in tillering.

Regarding `CCC(C)CCCC(O)(c1cncnc1)C(C)C` (centres unmarked) [Compound 21], the “G = Greening effect” value is on record as 1 (10-30%) with Barley, 2 (31-60%) in the assay on Wheat, 1 (10-30%) in the assay with Rice and 2 (31-60%) in the assay on Tomato. Further, the “I = Interligular or internodal length reduction” value in the assay on Barley was 3 (61-100%); in the assay with Wheat, 2 (31-60%); with Rice, 2 (31-60%); in the assay on Apple it was 2 (31-60%); with Tomato, 2 (31-60%). The “R = Retardation” value with Barley, with Wheat, in the assay on Rice, with Apple and with Tomato was 2 (31-60%) in each case. Besides, the entries for the “T = Tillering or side shooting” value in the assay on Barley and with Rice were 3 (61-100%) and 2 (31-60%), respectively.

Take `CCCCCCC(O)(c1cncnc1)C(C)(C)C` (centres unmarked) [Compound 30]: the “G = Greening effect” value is given as 1 (10-30%) with Barley, 2 (31-60%) in the assay on Wheat, 2 (31-60%) in the assay on Rice and 2 (31-60%) with Tomato. Moreover, the “I = Interligular or internodal length reduction” value in the assay on Barley is recorded as 3 (61-100%); in the assay on Wheat, 3 (61-100%); in the assay on Rice it was 3 (61-100%); in the assay with Apple, 2 (31-60%); in the assay on Tomato, 2 (31-60%). Moreover, the “R = Retardation” value in the assay on Barley is 2 (31-60%); in the assay on Wheat it was 3 (61-100%); in the assay on Rice, 2 (31-60%); in the assay with Apple, 2 (31-60%); with Tomato it was 2 (31-60%). Besides, the “T = Tillering or side shooting” value with Barley is on record as 2 (31-60%); in the assay on Wheat, 3 (61-100%); in the assay with Rice, 3 (61-100%).

`CC(C)C(O)(CCC(C)(C)C)c1cncnc1` (centres unmarked) [Compound 20]: the “G = Greening effect” value is recorded as 1 (10-30%) in the assay on Barley; 2 (31-60%) in the assay on Wheat; 2 (31-60%) in the assay on Rice; 2 (31-60%) in the assay with Apple; 2 (31-60%) in the assay on Tomato. The “I = Interligular or internodal length reduction” value in the assay with Barley is 2 (31-60%); with Wheat it was 3 (61-100%); in the assay on Rice, 3 (61-100%); in the assay on Apple, 3 (61-100%); with Tomato, 3 (61-100%). Further, the “R = Retardation” value in the assay with Barley was 2 (31-60%); in the assay with Wheat it was 3 (61-100%); with Rice, 2 (31-60%); in the assay with Apple, 3 (61-100%); in the assay on Tomato it was 3 (61-100%). The “T = Tillering or side shooting” value with Rice was 3 (61-100%).

As for `CC(C)CCCCC(O)(c1cncnc1)C(C)C` (centres unmarked) [Compound 22], the “I = Interligular or internodal length reduction” value with Barley was 1 (10-30%); in the assay with Wheat, 2 (31-60%); in the assay with Apple it was 1 (10-30%); with Tomato, 2 (31-60%). The “R = Retardation” value with Barley is reported as 1 (10-30%); in the assay on Wheat, 2 (31-60%); with Apple, 1 (10-30%); with Tomato it was 2 (31-60%). Also, the “G = Greening effect” value in the assay with Wheat and in the assay on Tomato was 2 (31-60%) throughout. The “T = Tillering or side shooting” value in the assay with Wheat and with Tomato (* = decrease in tillering) was 1 (10-30%) in each case.

`CC(C)(C)C(O)(C#CCCCl)c1cncnc1` (centres unmarked) [Compound 36]: in the assay with Barley, the “G = Greening effect” value is 3 (61-100%), the “I = Interligular or internodal length reduction” value is 3 (61-100%), the “R = Retardation” value was 3 (61-100%) and the “T = Tillering or side shooting” value is 3 (61-100%). Moreover, in the assay with Wheat, the “G = Greening effect” value was 2 (31-60%), the “I = Interligular or internodal length reduction” value is listed as 3 (61-100%), the “R = Retardation” value is listed as 2 (31-60%) and the “T = Tillering or side shooting” value was 1 (10-30%). Moreover, in the assay with Tomato, the “G = Greening effect” value is recorded as 2 (31-60%), the “I = Interligular or internodal length reduction” value is 2 (31-60%) and the “R = Retardation” value was 2 (31-60%).

In the case of `CC(C)(C)/C=C/C(O)(c1cncnc1)C(C)(C)CF` (centres unmarked) [Compound 49, 3-fluoro-2,2-dimethyl-1-(3,3-dimethylbut-1-ene)-1-(pyrimidin-5-yl)-propan-1-ol], the “T = Tillering or side shooting” value with Barley is recorded as 3 (61-100%). Moreover, in the assay with Wheat, the “G = Greening effect” value is 1 (10-30%), the “I = Interligular or internodal length reduction” value is 2 (31-60%), the “R = Retardation” value was 2 (31-60%) and the “T = Tillering or side shooting” value is 1 (10-30%). In the assay on Tomato, the “G = Greening effect” value is 1 (10-30%), the “I = Interligular or internodal length reduction” value is recorded as 1 (10-30%) and the “R = Retardation” value is 2 (31-60%).

Take `CC(C)(C)/C=C/C(O)(c1cncnc1)C(C)(C)C` (centres unmarked) [Compound 39]: in the assay with Barley, the “I = Interligular or internodal length reduction” value is on record as 3 (61-100%), the “R = Retardation” value is 3 (61-100%) and the “T = Tillering or side shooting” value is on record as 3 (61-100%). For the same molecule, in the assay on Wheat, the “G = Greening effect” value is reported as 1 (10-30%), the “I = Interligular or internodal length reduction” value is listed as 3 (61-100%), the “R = Retardation” value was 3 (61-100%) and the “T = Tillering or side shooting” value is 2 (31-60%). In the assay with Tomato, the “G = Greening effect” value is 2 (31-60%), the “I = Interligular or internodal length reduction” value is 3 (61-100%) and the “R = Retardation” value is given as 3 (61-100%).

With `CC(C)CCC(O)(c1cncnc1)C(C)(C)C` (centres unmarked) [Compound 29], the “I = Interligular or internodal length reduction” value with Barley is recorded as 2 (31-60%); in the assay on Wheat it was 3 (61-100%); with Rice it was 3 (61-100%); with Apple, 2 (31-60%); in the assay on Tomato it was 2 (31-60%). Moreover, the “R = Retardation” value in the assay on Barley, in the assay with Wheat, in the assay with Rice, in the assay on Apple and in the assay on Tomato was 2 (31-60%) throughout. In addition, the “T = Tillering or side shooting” value in the assay on Barley is recorded as 2 (31-60%); with Wheat, 2 (31-60%); in the assay with Rice, 1 (10-30%). Besides, the “G = Greening effect” value in the assay with Wheat is listed as 2 (31-60%); in the assay with Rice, 1 (10-30%); with Apple, 1 (10-30%); with Tomato, 1 (10-30%).

These data come from US4875922A, “Pyrimidine derivatives” (Imperial Chemical Industries PLC, priority 1986, dated 1989).
